Results reported in article PMC11714206, “Massively Parallel Screening of Toll/Interleukin‐1 Receptor (TIR)‐Derived Peptides Reveals Multiple Toll‐Like Receptors (TLRs)‐Targeting Immunomodulatory Peptides” (Advanced Science, 2024).
One block for each sequence: values may come before it.

Molecular target: T1, MyD88^TIR (Homo sapiens, UniProt Q99836)
T1 construct: MyD88 (residues 148–296); 6xHis; made in house; host or cells: E. coli BL21 (DE3)
Assay: T‐Surf phage library (P8 and P3) selection against MyD88^TIR, four rounds, NGS read counts
Type: binding
Conditions: for P8_MyD88 Rank (after) / P8_MyD88 Rank (before): P8 library; for P3_MyD88 Rank (after) / P3_MyD88 Rank (before): P3 library; for Population: P8_MyD88 pool: P8 T-Surf phage library, 4th round of selection against MyD88 TIR, share of NGS reads
Outline: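 Library of 190 946 TIR‐derived peptides on P8 or P3 was panned on immobilized TIR domain coated at 5 µg mL^−1, BSA‐blocked, 1 h binding at RT, PBS/0.5% Tween‐20 washes, HCl elution, TG1 amplification. Fourth‐round pools were PCR‐barcoded, sequenced (100 bp paired‐end, Phred ≥30), and peptides ranked by read counts.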

[1] = 4R selection against MyD88, rank after grouping
[2] = 4R selection against MyD88, rank before grouping
[3] = selection against MyD88 TIR, rank by count after grouping
[4] = selection against MyD88 TIR, rank by count before grouping
[5] = selection against MyD88, rank by count after grouping
[6] = selection against MyD88, rank by count before grouping
[7] = P8_MyD88: rank by NGS read count after grouping
[8] = P8_MyD88: rank by NGS read count before grouping
[9] = P8_MyD88: rank by count after grouping
[10] = P8_MyD88: rank by count before grouping
[11] = selection against MyD88, rank after grouping
[12] = selection against MyD88, rank before grouping
[13] = P3_MyD88: rank by count after grouping
[14] = P3_MyD88: rank by count before grouping

T1 sequence (Q99836 148-296): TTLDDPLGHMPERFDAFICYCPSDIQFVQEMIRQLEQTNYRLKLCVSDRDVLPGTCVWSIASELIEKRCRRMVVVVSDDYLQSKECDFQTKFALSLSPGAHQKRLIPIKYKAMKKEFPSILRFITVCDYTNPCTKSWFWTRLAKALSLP

P8_MyD88 Rank (after) [1]: 595
P8_MyD88 Rank (before) [2]: 2662
Sequence: DPQGLVCYYERLVSLL

P3_MyD88 Rank (after) [1]: 651
P3_MyD88 Rank (before) [2]: 3662
Sequence: KELVHVWSSKANSRVG

P3_MyD88 Rank (after) [3]: 217
P3_MyD88 Rank (before) [4]: 2522
Sequence: LKVERWRQSLEKAGKL

P3_MyD88 Rank (after) [5]: 690
P3_MyD88 Rank (before) [6]: 2633
Sequence: RTLFENLWESVYNISQ

P8_MyD88 Rank (after) [1]: 591
P8_MyD88 Rank (before) [2]: 2968
Sequence: DPQDQDRFYERLVSLF

P3_MyD88 Rank (after) [3]: 271
P3_MyD88 Rank (before) [4]: 896
Sequence: YNFISHLYDALRLNKIETF

Rank (after) [7]: 875
Rank (before) [8]: 2171
Sequence: VANILGYHWFDWEYFVVIGD

Rank (after) [9]: 160
Rank (before) [10]: 177
Population: 0.00771%
Sequence: VASHWALEELRMIMDF

Rank (after) [7]: 884
Rank (before) [8]: 3218
Sequence: LGYYWNDWEYVVGIEE

P8_MyD88 Rank (after) [11]: 505
P8_MyD88 Rank (before) [12]: 3051
Sequence: DQQDLDWFYERLVSVF

P3_MyD88 Rank (after) [1]: 661
P3_MyD88 Rank (before) [2]: 2060
Sequence: DHHMDLPRDTAIKPEILG

P3_MyD88 Rank (after) [11]: 560
P3_MyD88 Rank (before) [12]: 2763
Sequence: PKVGSWRQALEKAGKL

Rank (after) [13]: 104
Rank (before) [14]: 1178
Sequence: SDLRVVEDGSVSPLEM

P8_MyD88 Rank (after) [3]: 278
P8_MyD88 Rank (before) [4]: 3410
Sequence: PRDLEWLYERLVSLIL

P3_MyD88 Rank (after) [11]: 574
P3_MyD88 Rank (before) [12]: 1647
Sequence: YTALTIAAFIPFVIM

Rank (after) [13]: 471
Rank (before) [14]: 3247
Sequence: SSFRRPVASAGTEQK

P8_MyD88 Rank (after) [5]: 754
P8_MyD88 Rank (before) [6]: 3064
Sequence: DMQDIEWFYVKLIVSI

P3_MyD88 Rank (after) [5]: 734
P3_MyD88 Rank (before) [6]: 1991
Sequence: DHLDPSHLRKQSGEFG

Rank (after) [13]: 156
Rank (before) [14]: 3107
Sequence: SRFREGLWPLLELSKK

Rank (after) [7]: 978
Rank (before) [8]: 2116
Sequence: YITWFDDIQQIQVFWV

P3_MyD88 Rank (after) [5]: 677
P3_MyD88 Rank (before) [6]: 1653
Sequence: YTALTNMSFHTFRDNY

Rank (after) [13]: 128
Rank (before) [14]: 790
Sequence: KWFWDKLKYALPHRYEP

Rank (after) [13]: 409
Rank (before) [14]: 2224
Sequence: EIVKFVLAKLVHLEHP

Rank (after) [9]: 159
Rank (before) [10]: 171
Population: 0.00809%
Sequence: DYTSSPWALEELLKIM

P8_MyD88 Rank (after) [1]: 590
P8_MyD88 Rank (before) [2]: 3565
Sequence: QDLGWFYERLVSLF

P3_MyD88 Rank (after) [1]: 587
P3_MyD88 Rank (before) [2]: 3010
Sequence: SELCVVAEGSVSPLDM

P8_MyD88 Rank (after) [1]: 624
P8_MyD88 Rank (before) [2]: 2726
Sequence: DPQDLGWFYERLISQILK

P3_MyD88 Rank (after) [3]: 220
P3_MyD88 Rank (before) [4]: 3622
Sequence: KEVEGWRDALPTVASL

P3_MyD88 Rank (after) [3]: 236
P3_MyD88 Rank (before) [4]: 1997
Sequence: DHHLDLSRGKAIKPAILG

Rank (after) [13]: 452
Rank (before) [14]: 3442
Sequence: NELVHEWSSKANSVVG

P3_MyD88 Rank (after) [11]: 575
P3_MyD88 Rank (before) [12]: 3061
Sequence: SELREVVGGAVSQLVM

P3_MyD88 Rank (after) [3]: 225
P3_MyD88 Rank (before) [4]: 1708
Sequence: YTARTNSGFHTFLDND

P3_MyD88 Rank (after) [11]: 525
P3_MyD88 Rank (before) [12]: 1994
Sequence: DHHLALPRGKASKPEHLG

P3_MyD88 Rank (after) [11]: 483
P3_MyD88 Rank (before) [12]: 2026
Sequence: DHHLDLPRGKAIKPEILGH

Rank (after) [7]: 882
Rank (before) [8]: 2782
Sequence: DPQDLDWFYERLASGI

Rank (after) [9]: 440
Rank (before) [10]: 3301
Sequence: LGYHWIDWEYYVGTED

P8_MyD88 Rank (after) [3]: 212
P8_MyD88 Rank (before) [4]: 323
Sequence: EWALHQLQQIIKWHQT

P8_MyD88 Rank (after) [5]: 747
P8_MyD88 Rank (before) [6]: 1418
Sequence: WALDELLQILHVSEMF

P3_MyD88 Rank (after) [5]: 707
P3_MyD88 Rank (before) [6]: 2496
Sequence: LKVESWRQALEKAGKLRYAM

Rank (after) [9]: 149
Rank (before) [10]: 168
Population: 0.00848%
Sequence: WALQELLEILKANREL

Rank (after) [7]: 973
Rank (before) [8]: 1874
Sequence: YASSSWYRFELVDILW

P8_MyD88 Rank (after) [11]: 482
P8_MyD88 Rank (before) [12]: 3246
Sequence: LGYHWIGWEYCVGIED

Rank (after) [9]: 456
Rank (before) [10]: 1901
Sequence: YASSSWALNELLEILDAKETM

Rank (after) [7]: 914
Rank (before) [8]: 2759
Sequence: DPQDLDWFYERVVGLF

P3_MyD88 Rank (after) [1]: 613
P3_MyD88 Rank (before) [2]: 1634
Sequence: YTALANSGFHTFHDND

P8_MyD88 Rank (after) [5]: 680
P8_MyD88 Rank (before) [6]: 2615
Sequence: DPLHLDWHYERLVSTD

P3_MyD88 Rank (after) [11]: 558
P3_MyD88 Rank (before) [12]: 1464
Sequence: YYLDPSHLRKHSGEIG

P8_MyD88 Rank (after) [1]: 666
P8_MyD88 Rank (before) [2]: 2903
Sequence: DPQDLHGIYERLVILF
